# Assay results reported in paper PMC12264794, “Homoleptic complexes of titanium(IV) fused with O^N^O Schiff base derivatives: design, BSA–DNA interaction, molecular docking, DFT and cytotoxicity” (RSC Advances, 2025).
# Where two headings read alike, the source gives them in different places.
# Tests used:
# [1] = target: T1, BSA (Bos taurus, UniProt P02769); assay: BSA fluorescence quenching titration; format: binding, bovine; conditions: for KBSA, Stern–Volmer quenching constant: BSA 3 × 10^−6 M, PBS pH 7.4; for Kq, quenching rate constant: τ0 = 1 × 10^−8
# T1 construct: purchased Himedia Chemicals
# Experimental: BSA stock solution (5 mM) was prepared in 5 mM phosphate buffer (pH 7.4) and then kept at 2–6 °C. The binding mechanism of the Ti(IV) complexes with BSA was established using fluorescence titration at 200–500 nm. Metal complexes with BSA were quenched by tracking changes in the fluorescence intensity at a certain excitation wavelength of 285 nm and emission value at 345 nm, respectively.[52] Identical excitation and emission scan rates and slit widths were employed in all investigations. In order to titrate against different metal complex concentrations ranging from 0 to 80 μM, a constant protein concentration of BSA was used. Similarly, the synchronous fluorescence spectra were also acquired by titrating different metal complex concentrations ranging from 0 to 80 μM while maintaining a constant BSA at the specified excitation wavelengths, λ = 15 nm and 60 nm.[53,54]
# Ti(IV) complexes of (1 × 10^−5 M) concentration were gradually added, ranging from 0 to 72 μM to bind with BSA (3 × 10^−6 M) of fixed concentration in PBS buffer of pH 7.4. […] This phenomenon might be caused by modifications to the secondary or tertiary structures of BSA, which could have an impact on the tryptophan residues of the BSA microenvironment. Typically, the Stern–Volmer eqn (8) can be used to characterize fluorescence quenching.8 I0/I = 1+KBSA[Q] = 1 + kqτ0[Q]where τ0 is the lifetime of the tryptophan in BSA, which is determined to be 1 × 10^−8, kq is the quenching constant, I0 is the fluorescence intensity of BSA in the absence of complex and I denotes the fluorescence intensities of BSA in the presence of a complex of concentration [Q]. The quenching rate constant, dynamic quenching constant, average lifetime without quencher, and quencher concentration of the biomolecule are represented by the values of kq, KBSA, τ0 and [Q], respectively.
# The binding constant (Kb) and the number of binding sites (n) for the static quenching interaction can be determined using the Scatchard eqn (9),9 Log(I0 − I/I) = log K + n log[Q]where I0 and I are the fluorescence intensities of BSA with and without quenchers (complexes). Fig. 7(c), Table 3 and ESI Fig. S70 ^† display the double logarithmic plot of log[I0 − I/I] vs. log[complex].
# [2] = tested on: HeLa cells; assay: MTT cytotoxicity assay, HeLa; format: cell-based, human; conditions: for IC50: 48 h of drug exposure; for Selectivity: HeLa cell lines
# Experimental: The in vitro cytotoxicity of the Ti(IV) complexes under investigation was investigated using MTT, a micro-titration colorimetric method. The in vitro cytotoxicity test of the Ti(IV) complexes was evaluated against the cervical cancer cell line (HeLa), human breast cancer cell line (MCF-7) and human kidney normal cell line (HEK-293).[65,66]
# In the cytotoxicity assay, tetrazolium salt 3-[4,5-dimethylthiazol-2-yl]-2,5diphenyl tetrazolium bromide (MTT) was utilized to assess cell viability. The MTT powder was diluted in Dulbecco's PBS (stock solution of MTT (5 mg mL^−1)) to attain a final concentration of 0.5 mg mL^−1 and a […] was used to filter and sterilize the stock solution, which was then kept at 2–6 °C. In metabolically active cells, MTT is reduced to produce an insoluble purple formazan product. In the exponential phase, cells were taken out of the stored cultures after the 48-hour recovery period, following seeding onto 96-well plates at a density of 1 × 10^4 cells per well in 100 μL medium at 37 °C in a 95% air and 5% CO2 environment, and the cells were incubated for 12 hours. Cell lines were treated for 48 hours with Ti(IV) complexes at varying doses (9.5–300 μM) and cis-platin as a control (apart from normal cells). After 48 hours of incubation at 37 °C, the medium was removed and 100 μL of DMSO was added to dissolve the […], and the culture plates were shaken for five minutes. A Bio-Rad xMARK™ multi-well plate reader was used to measure the absorbance of each well at 570 nm. Using eqn (2), the percentage viability, which represents the relative viability of the treated cells in comparison to the control cells, was calculated, and the IC50 values and standard deviation of the substances under investigation were calculated in triplicate.2 [drawing 2]
# An MTT assay was used to examine the cytotoxic effectiveness of the produced Ti(IV) complexes. After 48 hours of incubation, the cytotoxicity of Ti-1-IS to Ti-6-IBr was evaluated against human cancer cell lines, such as breast carcinoma (MCF7) and cervical cancer (HeLa), as well as the non-cancerous human embryonic kidney (HEK) cell line, by using the widely used therapeutic drug, cis-platin, as a positive control by following the standard protocol.
# [3] = Stability studies by UV-vis in DMSO:H2O and aqueous GSH medium; format: physicochemical; conditions: DMSO : H2O (1 : 9, v/v) and aqueous GSH medium, over 72 hours
# Experimental: Stability studies were carried out using DMSO : H2O medium (1 : 9, v/v) and aqueous GSH medium to perform stability tests on the freshly synthesized Ti(IV) complexes over 72 hours.
# [4] = Scatchard plot, 298 K, no site probe
# T1 sequence (P02769 25-607): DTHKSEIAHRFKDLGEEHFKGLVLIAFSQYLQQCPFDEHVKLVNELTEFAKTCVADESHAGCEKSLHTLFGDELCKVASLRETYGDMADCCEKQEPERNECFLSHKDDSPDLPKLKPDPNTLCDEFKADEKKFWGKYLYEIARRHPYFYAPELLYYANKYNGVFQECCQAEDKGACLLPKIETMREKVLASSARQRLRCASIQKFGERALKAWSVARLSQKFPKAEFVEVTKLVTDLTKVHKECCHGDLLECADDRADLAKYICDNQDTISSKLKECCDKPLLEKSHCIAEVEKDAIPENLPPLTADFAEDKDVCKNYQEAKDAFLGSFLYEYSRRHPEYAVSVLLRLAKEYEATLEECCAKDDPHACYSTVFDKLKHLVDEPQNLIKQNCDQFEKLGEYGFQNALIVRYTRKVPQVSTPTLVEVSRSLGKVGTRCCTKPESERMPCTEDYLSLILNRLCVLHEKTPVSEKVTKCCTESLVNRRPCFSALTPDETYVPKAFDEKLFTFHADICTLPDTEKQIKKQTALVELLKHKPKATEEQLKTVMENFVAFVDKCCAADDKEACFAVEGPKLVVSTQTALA
compound,measurement,setting,value
[O-]C(=NN=Cc1ccccc1[O-])c1ccncc1.[O-]C(=NN=Cc1ccccc1[O-])c1ccncc1.[Ti+4] [Ti-1-IS],"KBSA, Stern–Volmer quenching constant",[1],175000 M⁻¹
same,"n, number of binding sites (BSA)","[1]; Scatchard plot, 298 K",1.31
same,Kb binding constant (BSA),[1]; [4],400 M⁻¹
same,"Kq, quenching rate constant",[1],1.75e+13 M⁻¹ s⁻¹
same,IC50,[2],61.76 ± 0.1 µM
same,Stability,[3],did not change much
[O-]C(=NN=Cc1c([O-])ccc2ccccc12)c1ccncc1.[O-]C(=NN=Cc1c([O-])ccc2ccccc12)c1ccncc1.[Ti+4] [Ti-2-IN],"KBSA, Stern–Volmer quenching constant",[1],105000 M⁻¹
same,"n, number of binding sites (BSA)","[1]; Scatchard plot, 298 K",1.26
same,Kb binding constant (BSA),[1]; [4],470 M⁻¹
same,"Kq, quenching rate constant",[1],1.05e+13 M⁻¹ s⁻¹
same,IC50,[2],74.04 ± 0.5 µM
same,Stability,[3],did not change much
COc1cccc(C=NN=C([O-])c2ccncc2)c1[O-].COc1cccc(C=NN=C([O-])c2ccncc2)c1[O-].[Ti+4] [Ti-3-IO],KBSA,[1],277000 M⁻¹
same,"KBSA, Stern–Volmer quenching constant",[1],277000 M⁻¹
same,"n, number of binding sites (BSA)","[1]; Scatchard plot, 298 K",1.42
same,Kb binding constant (BSA),[1]; [4],360 M⁻¹
same,"Kq, quenching rate constant",[1],2.77e+13 M⁻¹ s⁻¹
same,IC50,[2],27.2 ± 1.1 µM
same,Selectivity,[2],> 29
same,Stability,[3],small degree of hyperchromism
[O-]C(=NN=Cc1cc(F)ccc1[O-])c1ccncc1.[O-]C(=NN=Cc1cc(F)ccc1[O-])c1ccncc1.[Ti+4] [Ti-4-IF],"KBSA, Stern–Volmer quenching constant",[1],197000 M⁻¹
same,"n, number of binding sites (BSA)","[1]; Scatchard plot, 298 K",1.60
same,Kb binding constant (BSA),[1]; [4],110 M⁻¹
same,"Kq, quenching rate constant",[1],1.97e+13 M⁻¹ s⁻¹
same,IC50,[2],47.3 ± 0.5 µM
same,Stability,[3],small degree of hyperchromism
[O-]C(=NN=Cc1cc(Cl)ccc1[O-])c1ccncc1.[O-]C(=NN=Cc1cc(Cl)ccc1[O-])c1ccncc1.[Ti+4] [Ti-5-ICl],Kb binding constant (BSA),[1],650 M⁻¹
same,"KBSA, Stern–Volmer quenching constant",[1],112000 M⁻¹
same,"n, number of binding sites (BSA)","[1]; Scatchard plot, 298 K",1.07
same,Kb binding constant (BSA),[1]; [4],650 M⁻¹
same,"Kq, quenching rate constant",[1],1.12e+13 M⁻¹ s⁻¹
same,IC50,[2],24.2 ± 0.7 µM
same,Selectivity,[2],> 26
same,Stability,[3],remained constant
Brc1ccc2c(c1)C=NN=C(c1ccncc1)[O][Ti]1([O]C(c3ccncc3)=NN=Cc3cc(Br)ccc3[O]1)[O]2 (stereo not shown) [Ti-6-IBr],"KBSA, Stern–Volmer quenching constant",[1],85000 M⁻¹
same,"n, number of binding sites (BSA)","[1]; Scatchard plot, 298 K",1.35
same,Kb binding constant (BSA),[1]; [4],140 M⁻¹
same,"Kq, quenching rate constant",[1],8.5e+12 M⁻¹ s⁻¹
same,IC50,[2],78.64 ± 0.2 µM
same,Stability,[3],small degree of hyperchromism
